Reference: ChEMBL document CHEMBL3886877, “Spiro ring compound as hepatitis C virus (HCV) inhibitor and uses thereof” (2016)

Test: Luciferase Assay: The Huh-7 cells transfected with HCV replicons system were seeded into 96-well plates (8,000 cells in 125 μL/well) respectively; each test compound was diluted to desired concentration using 5-fold serial dilutions protocol, 10 doses in duplicate, and added to wells with POD™ 810 Plate Assembler. […] In this paper, experiments were repeated twice and set the holes without compounds as negative control.

`COC(=O)N[C@H](C(=O)N1CCC[C@H]1c1ncc(-c2ccc(-c3ccc(-c4ccc5nc([C@@H]6CCCN6C(=O)[C@@H](NC(=O)OC)C(C)C)[nH]c(=O)c5c4)c4c3CC3(CCCC3)C4)cc2)[nH]1)C(C)C` showed an EC50 of 0.087 nM.

With `COC(=O)N[C@H](C(=O)N1C[C@@H](C)C[C@H]1[n+]1c[nH]c(-c2ccc(-c3ccc(-c4ccc5nc([C@@H]6C[C@H](C)CN6C(=O)[C@@H](NC(=O)OC)C(C)C)[nH]c(=O)c5c4)c4c3CC3(CCCC3)C4)cc2)c1)C(C)C` the EC50 (Huh-7) was 0.006 nM.
